Patent US6818226B2, “Dermal penetration enhancers and drug delivery systems involving same” (ACRUX DDS Pty. Ltd., priority 1996, dated 2004)
Like-named read-outs stand apart in the source and are kept apart here. Marks after values point to notes of the source that are not given here.

How the values were obtained:
[1] = Flux of oestradiol, progesterone, norethisterone acetate, ibuprofen, flurbiprofen across shed snake skin, 5 microL/cm^2 (Example 11); assay type: in vitro ADME; conditions: Children's python
[2] = Ibuprofen penetration across full-thickness hairless mouse skin in vitro (Example 5); conditions: control, no enhancer; 2% w/v ibuprofen in 70% aqueous ethanol
[3] = assay type: physicochemical
Source text: Japanese patent JP 61-268631 to Showa Denko KK discloses dermal penetration enhancers suitable for use with water-soluble drugs. The dermal penetration enhancers disclosed include 1-5 carbon fatty acid esters of para-aminobenzoic acid but their chemical structures are quite distinct from the compounds used in the present invention, and the physicochemical properties of the 1-5 carbon fatty acid esters of para-aminobenzoic acid are markedly different to those of the present invention. For example the octanol-water partition coefficients for all the 1-5 carbon fatty acid esters of para-aminobenzoic acid are at least 200 fold lower than those of the present invention. Also the preferred dermal penetration enhancer disclosed in JP 61-268631 is the 2 carbon fatty acid ester of para-aminobenzoic acid (or Benzocaine) which has an octanol-water partition coefficient which is more than 8000 fold lower than those of the present invention. Unlike those of the present invention, the preferred dermal penetration enhancer disclosed in JP 61-268631 has significant pharmacological properties in that it is a local anaesthetic, which has also been reported to cause irritant and allergic skin reactions. […]

[4] = Hydroquinone penetration across full-thickness guinea pig skin in vitro from gel, Franz cells (Example 4)
Source text: Adult guinea pigs of either sex (weight range 500 g-750 g) were used. The hair on the back flank and back was removed with the aid of depilatory wax (Arielle™) under halothane anaesthesia. Seven days later, after the stratum corneum had completely regenerated, the guinea pigs were killed and the skin removed and placed on a chilled slab. […] For in vivo experiments the guinea pigs were housed in individual cages and the topical hydroquinone formulations were applied to the hair-free areas. Each guinea pig received the test or control formulation on the corresponding contralateral site, thus allowing each animal to act as its own control.
Radiolabelled hydroquinone (C14, Amersham) was added to each of the topical formulations. At specified time intervals 200 microL of receptor solution was withdrawn with a micro-pipette and replaced with 200 microL of fresh normal saline. The 200 microL samples were added to 800 microL of water which in turn was added to 10 mL of scintillation cocktail consisting of Toluene™ 1L, PPO 5g, POPOP 0.1 g and Triton X™ 500 mL. The scintillation counting was performed on a Packard Tricarb 460C instrument. Disintegrations per minute were determined by an external standard procedure and calculated by the data system of the instrument.

[5] = Diffusion of indomethacin (Indospray) across snake skin after pretreatment with Octyl dimethyl PABA (Example 2); assay type: in vitro ADME; conditions: Children's python, 24 h
Procedure: (§1) Dermatol., 94; 235-240, 1990.
(§2) Degassing was repeated three times.
10 microL of increasing concentrations of Octyl dimethyl PABA in absolute ethanol were applied 30 mins prior to the application of the indomethacin formulation. The control experiment involved application of 10 microL of absolute ethanol alone 30 mins prior to the application of the indomethacin formulation. Samples were assayed according to the method described previously.

[6] = system: full-thickness guinea pig skin in vivo; assay: Melanin content of guinea pig skin in vivo after topical hydroquinone solution (Example 4); conditions: for Enhancement ratio (enhancer/control): melanin content
Procedure: Melanin content was measured by reflectance absorbance from the treated and untreated skin according to the methods outlined in the PhD thesis of Anderson, J. R., titled The Development of Techniques for Measuring the Bioavailability of Topical Depigmenting Agents (School of Pharmaceutics, Victorian College of Pharmacy Ltd., Parkville, Victoria, Australia, Dec., 1985).

[7] = assay type: in vitro ADME, Children's python
Source text: as §1, §2
The control formulation contained no penetration enhancer. The detection wavelength was 242 nm and the mobile phase consisted of acetonitrile:water (35%:65%).

[8] = Flux of oestradiol, progesterone, norethisterone acetate, ibuprofen, flurbiprofen across shed snake skin, 5 microL/cm^2 (Example 11); assay type: in vitro ADME, Children's python; conditions: for Enhancement ratio: 24 h
Source text: as §1, §2
In order to further illustrate the present invention and the advantages thereof, the following specific examples are given, it being understood that same are intended only as illustrative and in nowise limitative. In the examples, the effectiveness of the dermal penetration enhancers are illustrated by measuring the skin penetration of physiologically active agents. Also, the skin penetration of the dermal penetration enhancers of this invention were compared with that of other penetration enhancers as well as formulations of bio-affecting agents with common adjuvants. The comparisons made generally consisted of measuring the relative penetration through shed snake skin of the various formulations. In the examples, the in vitro skin penetration studies were performed using the same in vitro diffusion cell apparatus as previously mentioned.
The two penetration enhancers given as examples are octyl dimethyl PABA and Azone. Both penetration enhancers were again at a concentration of 8% v/v within the formulations and control was without a penetration enhancer. A concentration of 2% w/v oestradiol was used in the formulation and detection wavelength was 212 nm and the mobile phase consisted of acetonitrile:water (40%:60%).

[9] = Children's python, 24 h, 2 % v/v
[10] = hairless, mouse, 2 % v/v
[11] = Testosterone penetration across dermatomed neonate porcine skin in vitro (Example 6); assay type: in vitro ADME; conditions: control, no enhancer; 12% w/v testosterone in absolute ethanol
Source text: as §2

[12] = Testosterone flux across shed snake skin, finite dose 5 microL/cm^2 (Example 10); conditions: control, no enhancer, 12% w/v testosterone in absolute ethanol
Procedure: as §1, §2
The volume of each formulation applied to the skin was 5 microL/cm^2. Each formulation contained 12% w/v testosterone in absolute ethanol. The dose was applied with a GC syringe.
Samples were assayed for testosterone by HPLC as shown before in Example 6.

[13] = Testosterone clearance after intravenous bolus in pigs (Example 13); assay type: in vivo, domestic weanling pig; conditions: pig, plasma, bolus dose of intravenous testosterone
[14] = in vivo, Bartek et al. 1972; cited from earlier work
[15] = Ketoprofen flux from transdermal patch across snake skin (Example 9); assay type: in vitro ADME, Children's python; conditions: control transdermal patch without enhancer, over 24 h
Procedure: as §1, §2
The patches were prepared by dissolving 300 mg of ketoprofen, 400 mg of penetration enhancer, 300 mg of polyethylene glycol 400 and 800 mg of hydroxypropylcellulose in 20 mL of ethanol and stirring until viscous. This was then poured onto a clean glass plate and dried at 40 degrees Celsius for 1 h. The thickness of this film was approximately 1 mm. Circles of 0.8 cm^2 were then cut out of this matrix and stuck onto the middle of 2.0 cm^2 circles of OPSITE™ adhesive bandage. This patch was then stuck onto 2.0 cm^2 pieces of snake skin and placed in the diffusion cell. The ketoprofen content of each patch formulation was determined by HPLC in triplicate and found to be 6.99+/−0.30 mg/cm^2 and 6.76+/−0.24 mg/cm^2, for the control and octyl salicylate patches respectively (mean content+/−std error, […]).

[16] = Diffusion of ketoprofen across shed snake skin after pretreatment with enhancer (Example 1); conditions: control, no enhancer: 70% aqueous ethanol alone for 2 hours before 2% ketoprofen; 24 h
[17] = Diffusion of ketoprofen across snake skin, enhancer included in the formulation (Example 3); conditions: control, no enhancer; 2% w/v ketoprofen in 70% aqueous ethanol; 24 h
[18] = Children's python, 24 h, 8 % v/v

CC(C)Cc1ccc(C(C)C(=O)O)cc1 (centres unmarked) [Ibuprofen, ibuprofen]
Mean flux +/− std error of ibuprofen ([1]; 20 %): 5.39 +/− 0.50 microg/cm^2 · h | median amount of ibuprofen penetrated after 12 hours [2]: 474 μg/cm^2 | median amount of ibuprofen penetrated after 24 hours [2]: 1819 μg/cm^2

CCOC(=O)c1ccc(N)cc1 [Benzocaine, 2 carbon fatty acid ester of para-aminobenzoic acid]
octanol-water partition coefficient, fold lower than those of the present invention [3]: more than 8000 fold

CCCCC(CC)COC(=O)C=Cc1ccc(OC)cc1 (centres unmarked) [PARSOL ® MCX]
Flux of hydroquinone ([4]; HQ gel 15 mg/cm^2 with enhancer (PARSOL MCX 3% v/v, ESCALOL 507 3% v/v, AZONE 5% v/v as in row)): 0.93 ± 0.19 % dose/h | Enhancement ratio (enhancer/control) ([4]; hydroquinone flux from gel, guinea pig skin in vitro): 2.7

CCCCC(CC)COC(=O)c1ccc(N(C)C)cc1 (centres unmarked) [Octyl dimethyl PABA, Octyl dimethyl-para-aminobenzoate]
Enhancement ratio ([5]; 1.6 % v/v): 1.2 | Mean flux +/− std error of indomethacin ([5]; 1.6 % v/v): 1.43 +/− 0.14 microg.cm^2.h | Enhancement ratio ([5]; 3.2 % v/v): 1.4 | Mean flux +/− std error of indomethacin ([5]; 3.2 % v/v): 1.71 +/− 0.32 microg.cm^2.h | Enhancement ratio ([5]; 6.4 % v/v): 1.6 | Mean flux +/− std error of indomethacin ([5]; 6.4 % v/v): 1.94 +/− 0.09 microg.cm^2.h | Enhancement ratio (enhancer/control) ([4]; both, guinea pig, 3 % v/v): 2.9 | Melanin content ([6]; HQ 1% w/v with enhancer 2% v/v, finite dose solution 5 microL/cm^2): 38.2 ± 3.1 μg/cm^2 | Enhancement ratio (enhancer/control) ([6]; HQ 1% w/v with enhancer 2% v/v versus HQ 1% w/v control): 1.5 | Enhancement ratio [7, 18]: 5.8 | Mean flux +/− std error of hydrocortisone [7, 18]: 0.79 +/− 0.06 microg/cm^2.h | Mean flux +/− std error of oestradiol ([8]; Children's python, 8 % v/v): 0.26 +/− 0.01 microg/cm^2 · h | Enhancement ratio ([8]; Children's python, 8 % v/v): 2.4 | Enhancement ratio [9]: 3.5 | median amount of ibuprofen penetrated after 12 hours [10]: 1123* μg/cm^2 | median amount of ibuprofen penetrated after 24 hours [10]: 2981* μg/cm^2 | Mean flux +/− std error of flurbiprofen ([1]; 8 % v/v): 2.91 +/− 0.30 microg/cm^2 · h | Mean flux +/− std error of ibuprofen ([1]; 8 % v/v): 13.16 +/− 1.21 microg/cm^2 · h | Mean flux +/− std error of norethisterone acetate ([1]; 8 % v/v): 1.85 +/− 0.07 microg/cm^2 · h | Mean flux +/− std error of progesterone ([1]; 24 h, 8 % v/v): 0.95 +/− 0.03 microg/cm^2 · h

CCCCCCCCCCCCN1CCCCCC1=O [Azone, 1-dodecal-azacycloheptane-2-one]
Melanin content ([6]; HQ 2% w/v with enhancer 2% v/v, finite dose solution 5 microL/cm^2): 39.5 ± 9.6 μg/cm^2 | Enhancement ratio (enhancer/control) ([6]; HQ 2% w/v with enhancer 2% v/v versus HQ 2% w/v control): 0.93 | Mean flux +/− std error of oestradiol ([8]; Children's python, 8 % v/v): 0.40 +/− 0.05 microg/cm^2 · h | Enhancement ratio ([8]; Children's python, 8 % v/v): 5.4 | Enhancement ratio [9]: 3.6 | median amount of ibuprofen penetrated after 12 hours [10]: 1036* μg/cm^2 | median amount of ibuprofen penetrated after 24 hours [10]: 2684* μg/cm^2 | Mean flux +/− std error of flurbiprofen ([1]; 8 % v/v): 2.05 +/− 0.42 microg/cm^2 · h | Mean flux +/− std error of ibuprofen ([1]; 8 % v/v): 13.53 +/− 1.38 microg/cm^2 · h | Mean flux +/− std error of norethisterone acetate ([1]; 8 % v/v): 0.16 +/− 0.02 microg/cm^2 · h | Mean flux +/− std error of progesterone ([1]; 24 h, 8 % v/v): 2.17 +/− 0.33 microg/cm^2 · h

CC(=O)[C@H]1CC[C@H]2[C@@H]3CCC4=CC(=O)CC[C@]4(C)[C@H]3CC[C@]12C [Progesterone, progesterone]
Mean flux +/− std error of progesterone ([1]; 24 h, 6 % w/v): 0.40 +/− 0.02 microg/cm^2 · h

C[C@]12CC[C@H]3[C@@H](CCC4=CC(=O)CC[C@@]43C)[C@@H]1CC[C@@H]2O [testosterone]
mean amount of testosterone penetrated after 4 hours [11]: 4 ± 1 μg/cm^2 | mean amount of testosterone penetrated after 24 hours [11]: 13 ± 2 μg/cm^2 | Mean flux +/− std error of testosterone [12]: 0.70 +/− 0.03 microg/cm^2.h | clearance [13]: 11.1 mL/min/kg | permeability in human skin compared with pig skin, fold lower [14]: 2.2 fold

Oc1ccc(O)cc1 [HQ, hydroquinone]
Flux of hydroquinone ([4]; control gel, no enhancer, 15 mg/cm^2): 0.35 ± 0.10 % dose/h | Melanin content ([6]; HQ 1% w/v control, no enhancer, 5 microL/cm^2): 57.5 ± 3.7 μg/cm^2 | Melanin content ([6]; HQ 2% w/v control, no enhancer, 5 microL/cm^2): 36.8 ± 8.1 μg/cm^2

C[C@]12CCC(=O)C=C1CC[C@@H]1[C@@H]2[C@@H](O)C[C@@]2(C)[C@H]1CC[C@]2(O)C(=O)CO [hydrocortisone]
Mean flux +/− std error of hydrocortisone ([7]; control, no enhancer, 1% w/v hydrocortisone in 70% aqueous ethanol): 0.14 +/− 0.04 microg/cm^2.h

CC(C(=O)O)c1cccc(C(=O)c2ccccc2)c1 (centres unmarked) [ketoprofen]
Mean flux +/− std error of ketoprofen [15]: 0.47 ± 0.04 microg/cm^2.h | Mean flux +/− std error of ketoprofen [16]: 0.96 ± 0.18 microg/cm^2.h | Mean flux +/− std error of ketoprofen [17]: 0.78 ± 0.07 microg/cm^2.h

C[C@]12CC[C@@H]3c4ccc(O)cc4CC[C@H]3[C@@H]1CC[C@@H]2O [Oestradiol, oestradiol]
Mean flux +/− std error of oestradiol ([8]; control without penetration enhancer, 2% w/v oestradiol): 0.06 +/− 0.01 microg/cm^2 · h

C#C[C@]1(OC(C)=O)CC[C@H]2[C@@H]3CCC4=CC(=O)CC[C@@H]4[C@H]3CC[C@@]21C [Norethisterone acetate, norethisterone acetate]
Mean flux +/− std error of norethisterone acetate ([1]; 24 h, 6 % w/v): 0.14 +/− 0.02 microg/cm^2 · h

CC(C(=O)O)c1ccc(-c2ccccc2)c(F)c1 (centres unmarked) [Flurbiprofen, flurbiprofen]
Mean flux +/− std error of flurbiprofen ([1]; 20 %): 0.81 +/− 0.05 microg/cm^2 · h
